Experiment [1] deals with Protease (Human immunodeficiency virus 1, UniProt Q9YQ12). The experiment in a line: Inhibition of HIV1 protease by standard fluorimetric assay.
Experiment [2] has as its target Protease (Human immunodeficiency virus 1) (UniProt Q9YQ12). Description: Time dependent inhibition of HIV1 protease by standard fluorimetric assay.
For experiment [3] the target is unchanged. Description: Irreversible inhibition of HIV1 protease by standard fluorimetric assay.
For experiment [4] the target is unchanged. Description: Covalent inhibition of HIV1 protease assessed as covalent modification of enzyme residues by ESI-MS method.
Experiment [5] has the same target. The experiment in a line: Inhibition of HIV1 protease assessed as compound epoxide ring interaction with enzyme active site by X-ray crystallography.

The source made the active and inactive calls. No cut-off for these calls is given here.

Usually IC50 stands for the concentration that inhibits the measured activity by half. Low values mean inhibition by little substance, high ones a need for much substance. For `CC(C)[C@H](NC(=O)COc1ccccc1)C(=O)N[C@@H](Cc1ccccc1)[C@@H](O)[C@@H]1O[C@H]1Cc1ccccc1`, in experiment [1], the IC50 amounted to 670 nM. In addition, the inhibition entry in experiment [2], in experiment [3] and in experiment [4] was “inactive” each time. Further, the inhibition result in experiment [5] was “Active”.

Source of the values: ChEMBL document CHEMBL3351324, “Impact of Stereochemistry on Ligand Binding: X-ray Crystallographic Analysis of an Epoxide-Based HIV Protease Inhibitor” (ACS Med Chem Lett, 2014).
